Laboratory results: ChEMBL document CHEMBL5113398, “Design and synthesis of new quinoline derivatives as selective C-RAF kinase inhibitors with potent anticancer activity” (Eur J Med Chem, 2022)
In brackets after ≈: the same amount, converted by molar mass.

Assays:
CCRF-CEM = assay: Anticancer activity against human CCRF-CEM cells assessed as cell growth inhibition incubated for 48 hrs by SRB assay; assay type: functional
EKVX = assay: Anticancer activity against human EKVX cells assessed as cell growth inhibition incubated for 48 hrs by SRB assay; assay type: functional
HOP-62 = assay: Anticancer activity against human HOP-62 cells assessed as cell growth inhibition incubated for 48 hrs by SRB assay; assay type: functional
NCI-H226 = assay: Anticancer activity against human NCI-H226 cells assessed as cell growth inhibition incubated for 48 hrs by SRB assay; assay type: functional
NCI-H23 [1] = assay: Anticancer activity against human NCI-H23 cells assessed as cell growth inhibition incubated for 48 hrs by SRB assay; assay type: functional
NCI-H322M = assay: Anticancer activity against human NCI-H322M cells assessed as cell growth inhibition incubated for 48 hrs by SRB assay; assay type: functional
NCI-H460 = assay: Anticancer activity against human NCI-H460 cells assessed as cell growth inhibition incubated for 48 hrs by SRB assay; assay type: functional
NCI-H522 = assay: Anticancer activity against human NCI-H522 cells assessed as cell growth inhibition incubated for 48 hrs by SRB assay; assay type: functional
COLO 205 = assay: Anticancer activity against human COLO 205 cells assessed as cell growth inhibition incubated for 48 hrs by SRB assay; assay type: functional
HCT-15 = assay: Anticancer activity against human HCT-15 cells assessed as cell growth inhibition incubated for 48 hrs by SRB assay; assay type: functional
HT-29 = assay: Anticancer activity against human HT-29 cells assessed as cell growth inhibition incubated for 48 hrs by SRB assay; assay type: functional
SW-620 = assay: Anticancer activity against human SW-620 cells assessed as cell growth inhibition incubated for 48 hrs by SRB assay; assay type: functional
SF-268 = assay: Anticancer activity against human SF-268 cells assessed as cell growth inhibition incubated for 48 hrs by SRB assay; assay type: functional
U-251 = assay: Anticancer activity against human U-251 cells assessed as cell growth inhibition incubated for 48 hrs by SRB assay; assay type: functional
Malme-3M = assay: Anticancer activity against human Malme-3M cells assessed as cell growth inhibition incubated for 48 hrs by SRB assay; assay type: functional
M14 = assay: Anticancer activity against human M14 cells assessed as cell growth inhibition incubated for 48 hrs by SRB assay; assay type: functional
SK-MEL-2 = assay: Anticancer activity against human SK-MEL-2 cells assessed as cell growth inhibition incubated for 48 hrs by SRB assay; assay type: functional
SK-MEL-28 = assay: Anticancer activity against human SK-MEL-28 cells assessed as cell growth inhibition incubated for 48 hrs by SRB assay; assay type: functional
UACC-257 [2] = assay: Anticancer activity against human UACC-257 cells assessed as cell growth inhibition incubated for 48 hrs by SRB assay; assay type: functional
IGROV-1 [3] = assay: Anticancer activity against human IGROV-1 cells assessed as cell growth inhibition incubated for 48 hrs by SRB assay; assay type: functional
NCI/ADR-RES = assay: Anticancer activity against human NCI/ADR-RES cells assessed as cell growth inhibition incubated for 48 hrs by SRB assay; assay type: functional
SK-OV-3 = assay: Anticancer activity against human SK-OV-3 cells assessed as cell growth inhibition incubated for 48 hrs by SRB assay; assay type: functional
A498 = assay: Anticancer activity against human A498 cells assessed as cell growth inhibition incubated for 48 hrs by SRB assay; assay type: functional
ACHN [4] = assay: Anticancer activity against human ACHN cells assessed as cell growth inhibition incubated for 48 hrs by SRB assay; assay type: functional
SN12C = assay: Anticancer activity against human SN12C cells assessed as cell growth inhibition incubated for 48 hrs by SRB assay; assay type: functional
TK-10 [5] = assay: Anticancer activity against human TK-10 cells assessed as cell growth inhibition incubated for 48 hrs by SRB assay; assay type: functional
UO-31 = assay: Anticancer activity against human UO-31 cells assessed as cell growth inhibition incubated for 48 hrs by SRB assay; assay type: functional
PC-3 = assay: Anticancer activity against human PC-3 cells assessed as cell growth inhibition incubated for 48 hrs by SRB assay; assay type: functional
MCF7 = assay: Anticancer activity against human MCF7 cells assessed as cell growth inhibition incubated for 48 hrs by SRB assay; assay type: functional
MDA-MB-231 = assay: Anticancer activity against human MDA-MB-231 cells assessed as cell growth inhibition incubated for 48 hrs by SRB assay; assay type: functional
MDA-MB-468 [6] = assay: Anticancer activity against human MDA-MB-468 cells assessed as cell growth inhibition incubated for 48 hrs by SRB assay; assay type: functional
HL-60 = assay: Anticancer activity against human HL-60 cells assessed as total cell growth inhibition incubated for 48 hrs by SRB assay; assay type: functional
MOLT-4 = assay: Anticancer activity against human MOLT-4 cells assessed as total cell growth inhibition incubated for 48 hrs by SRB assay; assay type: functional
HOP-92 = assay: Anticancer activity against human HOP-92 cells assessed as total cell growth inhibition incubated for 48 hrs by SRB assay; assay type: functional
NCI-H23 [7] = assay: Anticancer activity against human NCI-H23 cells assessed as total cell growth inhibition incubated for 48 hrs by SRB assay; assay type: functional
UACC-257 [8] = assay: Anticancer activity against human UACC-257 cells assessed as total cell growth inhibition incubated for 48 hrs by SRB assay; assay type: functional
IGROV-1 [9] = assay: Anticancer activity against human IGROV-1 cells assessed as total cell growth inhibition incubated for 48 hrs by SRB assay; assay type: functional
ACHN [10] = assay: Anticancer activity against human ACHN cells assessed as total cell growth inhibition incubated for 48 hrs by SRB assay; assay type: functional
TK-10 [11] = assay: Anticancer activity against human TK-10 cells assessed as total cell growth inhibition incubated for 48 hrs by SRB assay; assay type: functional
MDA-MB-468 [12] = assay: Anticancer activity against human MDA-MB-468 cells assessed as total cell growth inhibition incubated for 48 hrs by SRB assay; assay type: functional
[13] = Cytotoxicity against human WI-38 cells assessed as cell growth inhibition incubated for 48 hrs by SRB assay; assay type: toxicity, cell-based
[14] = Aqueous solubility of compound by HPLC analysis; assay type: physicochemical
[15] = n-Octanol/PBS partition coefficient, logD of the compound at pH 7.4; assay type: physicochemical
[16] = Apparent permeability of the compound from apical to basolateral side in human Caco-2 cells at pH 6.5 to 7.4; assay type: ADME, cell-based; details: Caco-2, pH 6.5
[17] = Apparent permeability across apical to basolateral side in human Caco-2 cells assessed as drug recovery at pH 6.5 to 7.4; assay type: ADME, cell-based; details: Caco-2, pH 6.5, read-out: Drug recovery

CNC(=O)c1cc(Oc2ccc(NC(=O)Nc3ccc(Cl)c(C(F)(F)F)c3)cc2)ccn1 [SORAFENIB] gave a GI50 (CCRF-CEM) of 2000 nM, a GI50 (EKVX) of 2510 nM and a GI50 (HOP-62) of 2000 nM. For the same compound, the GI50 (NCI-H226) was 2000 nM, the GI50 (NCI-H23 [1]) was 2000 nM and the GI50 (NCI-H322M) was 2510 nM. The GI50 (NCI-H460) was 2510 nM, the GI50 (NCI-H522) was 2000 nM and the GI50 (COLO 205) was 2000 nM. The GI50 (HCT-15) was 2510 nM, the GI50 (HT-29) was 2000 nM and the GI50 (SW-620) was 2510 nM. For the same compound, the GI50 (SF-268) was 2510 nM, the GI50 (U-251) was 2000 nM and the GI50 (Malme-3M) was 2000 nM. The GI50 (M14) was 2000 nM, the GI50 (SK-MEL-2) was 2000 nM and the GI50 (SK-MEL-28) was 2510 nM. The GI50 (UACC-257 [2]) was 2000 nM, the GI50 (IGROV-1 [3]) was 2510 nM and the GI50 (NCI/ADR-RES) was 2510 nM. For the same compound, the GI50 (SK-OV-3) was 2510 nM, the GI50 (A498) was 2510 nM and the GI50 (ACHN [4]) was 2510 nM. For the same compound, the GI50 (SN12C) was 2510 nM, the GI50 (TK-10 [5]) was 3980 nM and the GI50 (UO-31) was 2510 nM. The GI50 (PC-3) was 2000 nM, the GI50 (MCF7) was 2510 nM and the GI50 (MDA-MB-231) was 1260 nM. The GI50 (MDA-MB-468 [6]) was 3160 nM, the TGI (HL-60) was 100000 nM and the TGI (MOLT-4) was 100000 nM. For the same compound, the TGI (HOP-92) was 5010 nM, the TGI (NCI-H23 [7]) was 5010 nM and the TGI (UACC-257 [8]) was 5010 nM. The TGI (IGROV-1 [9]) was 10000 nM, the TGI (ACHN [10]) was 10000 nM and the TGI (TK-10 [11]) was 10000 nM. For the same compound, the TGI (MDA-MB-468 [12]) was 7940 nM, the GI50 at 48 h [13] was > 20000 nM and the solubility [14] was 3.27 µM (≈ 1.52 µg/mL). It also gave a logD [15] of 3.85 and a Papp A→B [16] of 16.4 ×10⁻⁶ cm/s.
Work on COc1cc2cc(Oc3ccc(NC(=O)Nc4cc(C(F)(F)F)cc(C(F)(F)F)c4)cc3)c(C)nc2cc1OC yielded a solubility [14] of 212 µM (≈ 120 µg/mL) and a logD [15] of 3.1.
With CNC(=C[N+](=O)[O-])NCCSCc1ccc(CN(C)C)o1 [RANITIDINE] the recovery [17] was 82%.
In the case of CCC(C)(C)C(=O)O[C@H]1C[C@@H](C)C=C2C=C[C@H](C)[C@H](CC[C@@H]3C[C@@H](O)CC(=O)O3)[C@H]21 [SIMVASTATIN], the logD [15] is reported as 4.45.
Compound O=C1NC(=O)C(c2ccccc2)(c2ccccc2)N1 [PHENYTOIN] has a solubility [14] of 93.1 µM (≈ 23.5 µg/mL).
With COc1cc2c(c(OC)c1OC)-c1ccc(OC)c(=O)cc1[C@@H](NC(C)=O)CC2 [COLCHICINE] the Papp A→B [16] was 0.3 ×10⁻⁶ cm/s and the recovery [17] was 75.5%.
In the case of COc1cc2cc(Oc3ccc(NC(=O)Nc4ccc(Cl)c(C(F)(F)F)c4)cc3)c(C)nc2cc1OCCN(C)C, the solubility [14] is reported as 114 µM (≈ 66.9 µg/mL).
CO[C@H]1/C=C/O[C@@]2(C)Oc3c(C)c(O)c4c(O)c(c(/C=N/N5CCN(C)CC5)c(O)c4c3C2=O)NC(=O)/C(C)=C\C=C\[C@H](C)[C@H](O)[C@@H](C)[C@@H](O)[C@@H](C)[C@H](OC(C)=O)[C@@H]1C [RIFAMPIN] gave a solubility [14] of 175 µM (≈ 144 µg/mL) and a logD [15] of 1.31.
Work on CC(CCc1ccccc1)NCC(O)c1ccc(O)c(C(N)=O)c1 (stereo unspecified) [LABETALOL] yielded a Papp A→B [16] of 72 ×10⁻⁶ cm/s and a recovery [17] of 91%.
